A word on the mortality: it is the share of the test organisms that died.

Read-outs that look alike come from different tables or passages of the source.

The subject of this assay is Anthonomus grandis (Cotton Boll Weevil). The experiment in a line: Anthonomus grandis (Cotton Boll Weevil) test on sprayed cotton plants, mortality assessed. It counts as in vivo. Particulars: 120 h, read-out: control (mortality assessed). Here is the method: Anthonomus grandis (Cotton Boll Weevil)
Cotton plants are treated (100 mL spray volume) and 10 adult weevils are added to each plant (2 replicates per concentration). 5 days after infestation the mortality is assessed. The following compounds were tested and gave at least 80% control at 50 ppm: B3, B4, C2, C3, C4, E1, E7
Compounds are tested according to the above method.

The mark [1] stands for this setting: 50 ppm, cotton plants treated (100 mL spray volume), 10 adult weevils per plant, 5 days after infestation.

As to `N#Cc1cc(C2=NOC(c3cc(Cl)c(F)c(Cl)c3)(C(F)(F)F)C2)ccc1-n1cncn1` (centres unmarked) [Compound C3], the mortality at 50 ppm is no less than 80%.
Still for that read-out and setting: the result for `CCC(=O)NC1CCc2cc(C3=NOC(c4cc(Cl)cc(Cl)c4)(C(F)(F)F)C3)ccc21` (centres unmarked) [Compound E1] reads no less than 80%.
`C[C@H](NC(=O)C1CC1)c1ccc(C2(C(F)(F)F)CN=C(c3cc(Cl)c(Cl)c(Cl)c3)C2)cc1` (stereo partly drawn) [Compound B3, N-[(1S)-1-[4-[5-(3,4,5-trichlorophenyl)-3-(trifluoromethyl)-2,4-dihydropyrrol-3-yl]phenyl]ethyl]cyclopropanecarboxamide]: the mortality at 50 ppm under setting [1] was no less than 80%.
Regarding `N#Cc1cc(C2=NCC(c3cc(Cl)c(Cl)c(Cl)c3)(C(F)(F)F)C2)ccc1-n1cncn1` (centres unmarked) [Compound C2, 2-(1,2,4-triazol-1-yl)-5-[3-(3,4,5-trichlorophenyl)-3-(trifluoromethyl)-2,4-dihydropyrrol-5-yl]benzonitrile], the mortality at 50 ppm under setting [1] was no less than 80%.
As for `C[C@H](NC(=O)C1CC1)c1ccc(N2CCC(c3cc(C(F)(F)F)cc(C(F)(F)F)c3)(C(F)(F)F)C2)cc1` (stereo partly drawn) [Compound B4, N-[(1S)-1-[4-[3-[3,5-bis(trifluoromethyl)phenyl]-3-(trifluoromethyl)pyrrolidin-1-yl]phenyl]ethyl]cyclopropanecarboxamide], the mortality at 50 ppm under setting [1] was no less than 80%.

These data come from US20150189884A1, “METHODS OF CONTROLLING INSECTS” (Syngenta Participations AG, priority 2012, published 2015).
